Activity data for one molecule are collected here from ChEMBL document CHEMBL1151469, “Cytotoxic activity of N-chlorotaurine on Acanthamoeba spp” (Antimicrob Agents Chemother, 2008).

The subject of one test is Acanthamoeba hatchetti. Description: Amoebicidal activity against Trophozoites of Acanthamoeba hatchetti 11DS assessed as rounding of the cells at 55 mM in peptone yeast extract glucose medium at pH 7 after 30 mins by hemocytometer using trypan blue stain. Type of test: functional, organism-based.
Another test relates to Acanthamoeba polyphaga. Kind of test: Amoebicidal activity against Trophozoites of Acanthamoeba polyphaga 5SU assessed as complete loss of viability at 55 mM in phosphate buffered saline incubated in xenic agar medium after 14 days by hemocytometer using trypan blue stain in presence of 190 mM ammonium chloride. The format is functional, organism-based.

Active and inactive are the calls of the source. The rule behind the calls is not given here.

With `O=S(=O)(O)CCNCl`, the outcome with Acanthamoeba hatchetti was Active. Moreover, the result in the test on Acanthamoeba polyphaga was inactive.
